Laboratory results reported in patent US20240367095A1, “TERTIARY ALKANOLAMINE FOR GAS TREATING” (Dow Global Technologies LLC, priority 2021, published 2024).

Assay: physchem

In order of rising pKa:
1. CN(CCO)CC(O)CO (stereo not shown) [HEMAPD]  8.45
2. CC(CO)N(C)CC(O)CO (stereo not shown) [HMEMAPD, 3-[(2-hydroxy-1-methylethyl)methylamino]-1,2-propanediol]  8.53
3. CCC(CO)N(C)CC(O)CO (stereo not shown) [HMPMAPD, 3-[[1-(hydroxymethyl)propyl]methylamino]-1,2-propanediol]  8.53
4. CCCN(CCO)CC(O)CO (stereo not shown) [HEPAPD]  8.54
5. CCCCN(CCO)CC(O)CO (stereo not shown) [HEBAPD]  8.54
6. CCN(CCO)CC(O)CO (stereo not shown) [HEEAPD]  8.54
7. CCN(CC(O)CO)C(C)CO (stereo not shown) [EHMEAPD, 3-[ethyl(2-hydroxy-1-methylethyl)amino]-1,2-propanediol]  8.62
